These results are taken from patent US11260100B2, “Compositions targeting the interaction domain between p27Kip1 and Brk and methods of use thereof to inhibit p27 Y phosphorylation and cdk4 activity” (The Research Foundation for the State University of New York, priority 2014, dated 2022).

A word on the IC50: it is the point on the concentration scale where inhibition reaches its midpoint. Read a low IC50 as greater potency in that assay.

The test system of experiment [1] is MCF-7 inducible ALT cells. Kind of experiment: Mouse xenograft model, MCF7-ALT tumors. The following applies: day 17; start volume 200 mm3; Palbociclib 100 mg/kg daily gavage, doxycycline 0.1 mg/ml in drinking water. The format is in vivo, NOD/SCID mice. As for the experimental part: FIG. 14: ALT slows tumor growth in animals, and ALT and PD dual treatment causes tumor regression. MCF-7 inducible ALT cells were injected into the 4th mammary gland of NOD/SCID mice. Tumors were allowed to develop to a volume of 200 mm3, before treatment. Vehicle: daily gavage with PBS. PD: Daily gavage of Palbociclib 100 mg/kg. Doxy: 0.1 mg/ml doxycycline added to the drinking water to allow continuous uptake and induction of ALT in the human cancer cells. Doxy+PD: Daily gavage of Palbociclib 100 mg/kg and 0.1 mg/ml doxycycline added to the drinking water. Vehicle treated animals rapidly progressed and by 17 days, tumor volumes were >3000 mm PD treatment slowed down tumor growth but by day 17, tumors were >2500. […] However, dual ALT and PD (doxy/PD) treatment, caused tumor regression by […] (e.g., from 200 mm3 down to 0-40 mm3), by day 5, which was durable up to day 19.
NP-ALT was added to cell media in the absence of fetal bovine serum for 6 hours. This media was removed and replaced with FBS+media, and cells were allowed to recover for 2 days, at which time, cell counts were determined. Counts were standardized to the proliferation seen in the NO FBS untreated control. • Expression in vivo. […] Tumor volume was monitored every other day using digital calipers. […] Doxy+PD: Daily gavage of Palbociclib 100 mg/kg and 0.1 mg/ml doxycycline added to the drinking water. • Quantitative RT-PCR. […]

The target in experiment [2] is T1, cdk2 (Homo sapiens, UniProt P24941).
T1 construct: added to or expressed in MCF7 breast cancer cells on day 2 post plating; endogenous in cells; host or cells: MCF7 (ALT-MCF7 tetracycline-inducible line)
As to the kind of experiment: Immunoblot of cdk2T160 as measure of activated cdk2 (FIG. 10). The format is cell-based. As to conditions: MCF7, drugs at IC50. The method, then: FIG. 10: ALT BRK inhibits both CDK4 and CDK2. ALT, Palbociclib alone or in combination were added to or expressed in MCF7 breast cancer cells on day 2 post plating. Drugs were added at their IC50 concentration, based on previous results. ALT is expressed from an ALT-MCF7 tetracycline inducible cell line generated in the Blain lab. When tetracycline is added to the cell culture media, ALT is expressed in these cells. Vector: no tetracycline was added, so no ALT induction was detected. Drugs and media were replaced every two days. Cells were harvested every two days, lysed and used in immunoblot analysis. Actin: loading control. pRBser780 is a phospho-specific antibody that recognizes sites phosphorylated by cdk4, so is a measure of active cdk4. cdk2T160 recognizes a required phosphorylation event on residue […] and is a measure of activated cdk2.
Additional experiments were performed assessing activity of Brk in combination with Palbociclib. The data presented in FIGS. 9A and 9B reveal that Palbociclib and Brk inhibit proliferation for 2 days, and then resistance is observed (proliferation increases). Alt maintained arrest for roughly 10 days (50% inhibition of proliferation is detected). […] Alt-Brk/Palbociclib combination leads to a more durable cell cycle arrest. Mono therapy treated cells start to become resistant between day 8-10. […]
Background: A western blot detects proteins with antibodies after separation by electrophoresis.

Experiment [3] deals with MB 231 (TNBC). Kind of experiment: Palbociclib sensitivity of breast cancer line. The format is cell-based. The following applies: Homo sapiens; MB 231, moderate-responder.
Experiment [4] concerns MCF7 (ER/PR+, Her2-). Kind of experiment: Palbociclib sensitivity of breast cancer line. The format is cell-based. The following applies: Homo sapiens; MCF7, high responder.
Experiment [5] concerns HCC1954 (ER/PR-, Her2+). As to the kind of experiment: Palbociclib sensitivity of breast cancer line. The following applies: Homo sapiens; HCC1954, non-responder. The format is cell-based.

With `CC(=O)c1c(C)c2cnc(Nc3ccc(N4CCNCC4)cn3)nc2n(C2CCCC2)c1=O` [PD0332991], in experiment [1], the tumor volume is listed as more than 2500 mm3. Also, the “cdk2 activity (cdk2T160)” value in experiment [2] was “does not inhibit cdk2”. Besides, the IC50 in experiment [3] was 0.4 µM; in experiment [4], 0.2 µM; in experiment [5] it was more than 1 µM.
